The target in one experiment is T1, human MC1 receptor (Homo sapiens, UniProt Q01726).
T1 construct: expressed in transfected cells; host or cells: Chinese Hamster Ovary (CHO) cells
Briefly: Human MC1 receptor cAMP HTRF functional assay (MC1R stimulation). The format is cell-based. On the procedure: Human MC1 Receptor Using cAMP HTRF Functional Assay:
Twenty seven (27) compounds were tested for agonist activity at the human MC1 receptor using cAMP HTRF (homogeneous time-resolved fluorescence) assays at eight (8) concentrations and in duplicate.
On the day of experimentation, compounds were tested at several concentrations in duplicate wells (n=2) to obtain a dose-response curve and an estimated EC50 value. Values obtained for the reference compound were compared to historical values obtained from the same receptor and used to validate the experimental session. For replicate determinations, the maximum variability tolerated in the test was of +/−20% around the average of the replicates.
Assay: After cultivation Chinese Hamster Ovary (CHO) cells were detached and incubated at a specific cell density in assay buffer. At this stage the CHO cells express the human MC1R at their surface. Agonist compounds were added at determined concentration and incubated for 30 min. Cells were lysed in detection buffer in order to extract cAMP. The amount of cAMP within the cells correlates with GPCR-activity, meaning that in this assay it correlates with MC1R-activity. cAMP was detected in a competitive HTRF assay for binding to an anti-cAMP-antibody.
(TR-FRET usually uses a lanthanide donor and a delayed reading to cut background.)

The test system of experiment [1] is Skin samples (from abdominal plastic surgery). Briefly: Ex-vivo skin pigmentation trial (melanin amount, Fontana-Masson stain). The settings on record: 4 μl/200 μM of active applied topically daily; melanin amount at day 6; % increase versus untreated. The format is cell-based. On the procedure:
Skin samples (from abdominal plastic surgery) have been cut in pieces of approx. 8×3 mm (Øx thickness) and were cultured up to day 6 in an air-liquid interface in a perforated ring of stainless steel in contact with a culture medium (modified Williams'E medium), the culture medium has been renewed every three days. Six skin specimens have been used for each treatment. Each test sample (4 μl/200 μM of active) has been applied topically on top of each piece after gentle cleaning of the surface with a cotton pad followed by covering with a 6 ø mm delivery membrane, which procedure has been repeated daily. After 6 days of incubation, the melanin amount was assessed on twelve skin sections for each treatment by staining using a modified Fontana-Masson stain. The amount of melanin present in each slide has been evaluated by estimating the intensity and the distribution of grey tone: 8-bit grey-scale images for each treatment have been captured at the microscope. Then the colour space of the images have been transformed from RGB into L*a*b* images and each pixel of the picture has been evaluated according to its L* values. The obtained results have been transformed in ranks of L* and then normalized on the ratio between the selected area and the area of the slide. The result is indicated as % increase versus untreated at day 6.

[2] abbreviates: agonist activity, CHO cells expressing human MC1R, 30 min incubation, 8 concentrations in duplicate, read-out: EC50 [nM], MC1R stimulation assay.

This note sets out measurements from patent US11591367B2, “Melanocortin-1-receptor agonists” (DSM IP ASSETS B.V., priority 2016, dated 2023).

Where two headings read alike, the source gives them in different places. Residues, ends and D or L forms follow the SMILES beside them.

T1 sequence (Q01726 whole entry): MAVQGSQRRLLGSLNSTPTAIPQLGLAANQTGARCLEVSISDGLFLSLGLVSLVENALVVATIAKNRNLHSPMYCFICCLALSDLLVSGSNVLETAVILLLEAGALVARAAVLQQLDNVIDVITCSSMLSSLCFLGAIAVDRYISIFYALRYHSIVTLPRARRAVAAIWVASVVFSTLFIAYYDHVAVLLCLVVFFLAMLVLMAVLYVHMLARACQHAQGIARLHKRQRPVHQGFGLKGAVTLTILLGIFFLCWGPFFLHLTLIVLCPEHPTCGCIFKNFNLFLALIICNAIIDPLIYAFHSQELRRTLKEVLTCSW

In general, EC50 refers to the concentration at which the effect is half-maximal. `N=C(N)NCCC[C@H](NC(=O)[C@@H](Cc1ccccc1)NC(=O)[C@H](Cc1c[nH]cn1)NC(=O)CNC(=O)c1ccccc1)C(=O)N[C@@H](Cc1c[nH]c2ccccc12)C(N)=O` [(I-a), Bz-Gly-His-D-Phe-Arg-Trp-NH2 *2TFA] (HELM PEPTIDE1{[O=C(c1ccccc1)[*:2]].G.H.[dF].R.W.[am]}$$$$V2.0): the half-maximal effective concentration (EC50) at human MC1 receptor (setting [2]) turned out to be 0.041 nM. Also, the “skin pigmentation increase versus untreated” value in experiment [1] is “+18%”.
As for `N=C(N)NCCC[C@H](NC(=O)[C@@H](Cc1ccccc1)NC(=O)[C@H](Cc1c[nH]cn1)NC(=O)CNC(=O)c1ccccc1)C(=O)N[C@H](Cc1ccc2ccccc2c1)C(N)=O` [(I-b), Bz-Gly-His-D-Phe-Arg-D-2-NaphAla-NH2 *2TFA] (HELM PEPTIDE1{[O=C(c1ccccc1)[*:2]].G.H.[dF].R.[O=C([C@@H](Cc1ccc2ccccc2c1)N[*:1])[*:2]].[am]}$$$$V2.0), on human MC1 receptor (setting [2]), the concentration for a half-maximal effect (EC50) turned out to be 0.25 nM.
Consider `N=C(N)NCCC[C@H](NC(=O)[C@@H](Cc1ccccc1)NC(=O)[C@H](Cc1c[nH]cn1)NC(=O)CNC(=O)c1ccccc1)C(=O)N[C@@H](Cc1ccc2ccccc2c1)C(N)=O` [(I-c), Bz-Gly-His-D-Phe-Arg-L-2-NaphAla-NH2 *2TFA] (HELM PEPTIDE1{[O=C(c1ccccc1)[*:2]].G.H.[dF].R.[O=C([C@H](Cc1ccc2ccccc2c1)N[*:1])[*:2]].[am]}$$$$V2.0), for which, on human MC1 receptor (setting [2]), the EC50 was 0.11 nM.
Regarding `CCCN(CCC)C(=O)[C@@H](Cc1c[nH]c2ccccc12)NC(=O)[C@H](CCCNC(=N)N)NC(=O)[C@@H](Cc1ccccc1)NC(=O)[C@H](Cc1c[nH]cn1)NC(=O)CNC(=O)c1ccccc1` [(I-d), Bz-Gly-His-D-Phe-Arg-D-Trp-N(Propyl)2 *2TFA] (HELM PEPTIDE1{[O=C(c1ccccc1)[*:2]].G.H.[dF].R.[dW].[CCCN(CCC)[*:1]]}$$$$V2.0), the EC50 at human MC1 receptor (setting [2]) was 0.42 nM. For the same compound, in experiment [1], the “skin pigmentation increase versus untreated” value is listed as “+21%”.
Regarding `CCCN(CCC)C(=O)[C@H](Cc1c[nH]c2ccccc12)NC(=O)[C@H](CCCNC(=N)N)NC(=O)[C@@H](Cc1ccccc1)NC(=O)[C@H](Cc1c[nH]cn1)NC(=O)CNC(=O)c1ccccc1` [(I-e), Bz-Gly-His-D-Phe-Arg-Trp-N(Propyl)2 *2TFA] (HELM PEPTIDE1{[O=C(c1ccccc1)[*:2]].G.H.[dF].R.W.[CCCN(CCC)[*:1]]}$$$$V2.0), the EC50 on human MC1 receptor (setting [2]) worked out at 0.88 nM.
On the same count and under the same terms, to `CCCCCCCCNC(=O)[C@H](Cc1c[nH]c2ccccc12)NC(=O)[C@H](CCCNC(=N)N)NC(=O)[C@@H](Cc1ccccc1)NC(=O)[C@H](Cc1c[nH]cn1)NC(=O)CNC(=O)c1ccccc1` [(I-f), Bz-Gly-His-D-Phe-Arg-Trp-NHOctyl *2TFA] (HELM PEPTIDE1{[O=C(c1ccccc1)[*:2]].G.H.[dF].R.W.[CCCCCCCCN[*:1]]}$$$$V2.0) belongs 1.06 nM; to `N=C(N)NCCC[C@H](NC(=O)[C@@H](Cc1ccccc1)NC(=O)[C@H](Cc1c[nH]cn1)NC(=O)CNC(=O)c1ccccc1)C(=O)N[C@H](Cc1ccccc1)C(N)=O` [(I-g), Bz-Gly-His-D-Phe-Arg-D-Phe-NH2 *2TFA] (HELM PEPTIDE1{[O=C(c1ccccc1)[*:2]].G.H.[dF].R.[dF].[am]}$$$$V2.0), 1.79 nM.
The same measure, in the same setting: under `NCC[C@H](NC(=O)[C@@H](Cc1ccccc1)NC(=O)[C@H](Cc1c[nH]cn1)NC(=O)CNC(=O)c1ccccc1)C(=O)N[C@@H](Cc1c[nH]c2ccccc12)C(N)=O` [(I-h), Bz-Gly-His-D-Phe-Dab-Trp-NH2 *2TFA] (HELM PEPTIDE1{[O=C(c1ccccc1)[*:2]].G.H.[dF].[Dab].W.[am]}$$$$V2.0) stands 7.51 nM.
Take `N=C(N)NCCC[C@H](NC(=O)[C@@H](Cc1ccccc1)NC(=O)[C@H](Cc1cnc[nH]1)NC(=O)CNC(=O)c1ccccc1)C(=O)N(CCc1c[nH]c2ccccc12)CC(N)=O` [(I-i), Bz-Gly-His-D-Phe-Arg-(N-IndEt)Gly-NH2 *2TFA] (HELM PEPTIDE1{[O=C(c1ccccc1)[*:2]].G.H.[dF].R.[O=C(CN(CCc1c[nH]c2ccccc12)[*:1])[*:2]].[am]}$$$$V2.0): the EC50 on human MC1 receptor (setting [2]) came out at 4.4 nM.
`CCCN(CCC)C(=O)[C@H](Cc1c[nH]c2ccccc12)NC(=O)[C@H](CCCNC(=N)N)NC(=O)[C@@H](Cc1ccccc1)NC(=O)[C@@H](Cc1c[nH]cn1)NC(=O)CNC(=O)c1ccccc1` [Compound R1, Bz-Gly-D-His-D-Phe-Arg-Trp-N(Propyl)2 *2TFA, reference compound] (HELM PEPTIDE1{[O=C(c1ccccc1)[*:2]].G.[dH].[dF].R.W.[CCCN(CCC)[*:1]]}$$$$V2.0): on human MC1 receptor, the EC50 amounted to 36 nM.
On the same count and under the same terms, under `CCCN(CCC)C(=O)[C@H](Cc1c[nH]c2ccccc12)NC(=O)[C@H](CCCNC(=N)N)NC(=O)[C@H](Cc1ccccc1)NC(=O)[C@H](Cc1c[nH]cn1)NC(=O)CNC(=O)c1ccccc1` [Compound R2, Bz-Gly-His-Phe-Arg-Trp-N(Propyl)2 *2TFA, reference compound] (HELM PEPTIDE1{[O=C(c1ccccc1)[*:2]].G.H.F.R.W.[CCCN(CCC)[*:1]]}$$$$V2.0) stands 51.4 nM; under `CCCN(CCC)C(=O)[C@H](Cc1c[nH]c2ccccc12)NC(=O)[C@@H](CCCNC(=N)N)NC(=O)[C@@H](Cc1ccccc1)NC(=O)[C@H](Cc1c[nH]cn1)NC(=O)CNC(=O)c1ccccc1` [Compound R3, Bz-Gly-His-D-Phe-D-Arg-Trp-N(Propyl)2 *2TFA, reference compound] (HELM PEPTIDE1{[O=C(c1ccccc1)[*:2]].G.H.[dF].[dR].W.[CCCN(CCC)[*:1]]}$$$$V2.0), 70.1 nM.
Turning to `N=C(N)NCCC[C@H](NC(=O)[C@@H](Cc1ccccc1)NC(=O)[C@H](Cc1c[nH]cn1)NC(=O)CNC(=O)c1ccccc1)C(=O)NCCc1c[nH]c2ccccc12` [Compound R4, Bz-Gly-His-D-Phe-Arg-Tryptamide *2TFA, reference compound] (HELM PEPTIDE1{[O=C(c1ccccc1)[*:2]].G.H.[dF].R.[c1ccc2c(CCN[*:1])c[nH]c2c1]}$$$$V2.0), the 50% effective concentration (EC50) at human MC1 receptor (setting [2]) was 42.9 nM.
